Results taken from ChEMBL document CHEMBL1156140, “Synthesis and antitumor-evaluation of cyclopropyl-containing combretastatin analogs” (Bioorg Med Chem Lett, 2009).

Columns and labels:
HeLa = assay: Cytotoxicity against human HeLa cells by MTT assay; format: functional, cell-based
MCF7 = assay: Cytotoxicity against human MCF7 cells by MTT assay; format: functional, cell-based

| Compound | IC50 (HeLa; Homo sapiens, HeLa) [nM] | IC50 (MCF7; Homo sapiens, MCF7) [nM] | IC50 (HeLa; hela) [nM] | IC50 (MCF7; mcf7) [nM] |
| --- | --- | --- | --- | --- |
| COc1ccc(C2CC2c2cc(OC)c(OC)c(OC)c2)cc1OP(=O)(O)O (stereo not given) | 370 | 297 | – | – |
| COc1ccc(C2CC2c2cc(OC)c(OC)c(OC)c2)cc1NC(=O)[C@@H](N)CO (stereo not given in full) [listing 1 of 2 here] | – | – | 32 | 63 |
| COc1ccc(C2CC2c2cc(OC)c(OC)c(OC)c2)cc1OP(=O)(OCc1ccccc1)OCc1ccccc1 (stereo not given) | 10200 | 10800 | – | – |
| COCOc1cc(C#Cc2cc(OC)c(OC)c(OC)c2)ccc1OC | 26800 | 25600 | – | – |
| COc1ccc(/C=C\c2cc(OC)c(OC)c(OC)c2)cc1N | 0.53 | 3.5 | – | – |
| COc1ccc([C@@H]2C[C@@H]2c2cc(OC)c(OC)c(OC)c2)cc1O | 28 | 102 | – | – |
| COc1ccc(C2CC2c2cc(OC)c(OC)c(OC)c2)cc1NC(=O)[C@@H](N)CO (stereo not given in full) [listing 2 of 2 here] | – | – | 432 | 670 |
| COc1ccc(/C=C\c2cc(OC)c(OC)c(OC)c2)cc1NC(=O)OC(C)(C)C | 1170 | 3850 | – | – |
| COc1ccc(C2CC2c2cc(OC)c(OC)c(OC)c2)cc1N (stereo not given) | 41 | 212 | – | – |
| COc1ccc(/C=C\c2cc(OC)c(OC)c(OC)c2)cc1O [COMBRETASTATIN A4] | 0.51 | 2.4 | – | – |
| COc1ccc(/C=C\c2cc(OC)c(OC)c(OC)c2)cc1OP(=O)(OCc1ccccc1)OCc1ccccc1 | 246 | 1170 | – | – |
| COc1ccc(C#Cc2cc(OC)c(OC)c(OC)c2)cc1N | > 30000 | > 30000 | – | – |
| COc1ccc(C#Cc2cc(OC)c(OC)c(OC)c2)cc1NC(=O)OC(C)(C)C | > 30000 | > 30000 | – | – |
| COc1ccc(C2CC2c2cc(OC)c(OC)c(OC)c2)cc1NC(=O)OC(C)(C)C (stereo not given) | 10100 | 11800 | – | – |
| COCOc1cc(C2CC2c2cc(OC)c(OC)c(OC)c2)ccc1OC (stereo not given) | 24000 | 14000 | – | – |
| COCOc1cc(/C=C\c2cc(OC)c(OC)c(OC)c2)ccc1OC | 197 | 269 | – | – |
| COc1ccc(C#Cc2cc(OC)c(OC)c(OC)c2)cc1O | 1540 | 1640 | – | – |
| COc1ccc(/C=C\c2cc(OC)c(OC)c(OC)c2)cc1NC(=O)[C@@H](N)CO | – | – | 3.7 | 25 |
| COc1ccc(/C=C\c2cc(OC)c(OC)c(OC)c2)cc1OP(=O)(O)O [FOSBRETABULIN DISODIUM] | 0.43 | 2 | – | – |
| COc1ccc(/C=C\c2cc(OC)c(OC)c(OC)c2)cc1NC(=O)[C@@H](N)CO [OMBRABULIN] | – | – | 0.72 | 3.1 |
